In brackets after ≈: the same amount, converted by molar mass.
Tests used:
[1] = test system: Haemophilus influenzae (H. influenzae) 49247; experiment: Antibacterial activity, MIC (Table 6); assay type: cell-based
Method in brief: (§1)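 Values are minimum inhibitory concentrations in μg/mL, determined by microbroth dilution as the lowest concentration with no macroscopically visible growth.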

[2] = test system: Escherichia coli (E. coli) BAS849; experiment: Antibacterial activity, microbroth dilution MIC (Table 1); assay type: cell-based; details: microbroth dilution, super sensitive Gram-negative E. coli BAS849, read-out: MIC, BAS849
Method in brief: (§2)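 Using broth microdilution, MIC endpoints (μg/mL) mark where visible growth no longer appears; the panel spans sensitive and control Gram-negative strains plus a Gram-positive strain.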

[3] = test system: Staphylococcus aureus (S. aureus) 29213; experiment: as above; assay type: cell-based; details: microbroth dilution, Gram-positive S. aureus 29213, read-out: MIC, 29213
Method in brief: as §2

E. coli LZ3111 = experiment: Antibacterial activity, MIC, quinolone resistant strain (Table 2); assay type: cell-based; details: Escherichia coli, LZ3111, read-out: MIC LZ3111
Method in brief: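 Growth inhibition assessed by serial drug dilution in broth; endpoint was absence of macroscopically visible growth, reported as MIC, μg/mL.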

[4] = test system: Neisseria meningitidis (N. meningitidis) 13090; experiment: Antibacterial activity, MIC (Table 8); assay type: cell-based
Method in brief: as §1

[5] = test system: Moraxella catarrhalis (M. catarrhalis) 25238; experiment: Antibacterial activity, MIC (Table 7); assay type: cell-based
Method in brief: as §1

[6] = test system: Pseudomonas aeruginosa (P. aeruginosa) 27853; experiment: Antibacterial activity, MIC (Table 5); assay type: cell-based; details: P. aeruginosa 27853, read-out: MIC, 27853
Method in brief: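 Using a microbroth dilution format, the minimum inhibitory concentration was recorded as the lowest tested concentration that stopped visible bacterial growth, expressed in μg/mL.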

[7] = test system: Acinetobacter baumannii (A. baumannii) BAA747; experiment: Antibacterial activity, MIC (Table 4); assay type: cell-based; details: A. baumannii BAA747, read-out: MIC, BAA747
Method in brief: (§3)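 Broth microdilution; MIC (μg/mL) = lowest concentration with no macroscopically visible growth. Resistant strains: multi-drug resistant clinical isolates.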

[8] = test system: Klebsiella pneumoniae (K. pneumoniae) 35657; experiment: Antibacterial activity, MIC (Table 4); assay type: cell-based; details: K. pneumoniae 35657, read-out: MIC, 35657
Method in brief: as §3

E. coli ELZ4000 = experiment: Antibacterial activity, MIC, multi-drug resistant clinical isolate (Table 3); assay type: cell-based; details: Escherichia coli, ELZ4000, read-out: MIC ELZ4000
Method in brief: (§4)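 Values derive from a microbroth dilution method, taking as MIC (μg/mL) the lowest tested concentration without macroscopically visible growth.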

E. coli ELZ4251 = experiment: as above; assay type: cell-based; details: Escherichia coli
Method in brief: as §4

K. pneumoniae MXX1232 = experiment: Antibacterial activity, MIC, resistant strain (Table 4); assay type: cell-based; details: Klebsiella pneumoniae, MXX1232; resistant K. pneumoniae MMX1232, multi-drug resistant clinical isolate; read-out: MIC, MMX1232
Method in brief: as §3

A. baumannii MXX2240 = experiment: as above; assay type: cell-based; details: Acinetobacter baumannii, MXX2240; resistant A. baumannii MMX2240, multi-drug resistant clinical isolate; read-out: MIC, MMX2240
Method in brief: as §3

E. coli 25922 = experiment: Antibacterial activity, microbroth dilution MIC (Table 1); assay type: cell-based, Escherichia coli; details: Escherichia coli; microbroth dilution; control Gram-negative E. coli 25922 strain; read-out: MIC, 25922
Method in brief: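 Read-out: visual absence of growth. The lowest concentration meeting this gives the MIC, expressed in μg/mL, with microbroth dilution as the method.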

Structure (SMILES) | MIC [1] [µg/mL] | MIC [2] [µg/mL] | MIC [3] [µg/mL] | MIC (E. coli LZ3111) [µg/mL] | MIC [4] [µg/mL] | MIC [5] [µg/mL] | MIC [6] [µg/mL] | MIC [7] [µg/mL] | MIC [8] [µg/mL] | MIC (E. coli ELZ4000) [µg/mL] | MIC (E. coli ELZ4251) [µg/mL] | MIC (K. pneumoniae MXX1232) [µg/mL] | MIC (A. baumannii MXX2240) [µg/mL] | MIC (E. coli 25922) [µg/mL]
CCc1c(-c2ccc3c(c2)cc(CNCC2CCCCN2C)n3C)[nH]c(=O)c(C(=O)O)c1O.Cl.Cl (stereo not drawn) [Cpd 233, 5-ethyl-4-hydroxy-6-(1-methyl-2-((((1-methylpiperidin-2-yl)methyl)amino)methyl)-1H-indol-5-yl)-2-oxo-1,2-dihydropyridine-3-carboxylic acid dihydrochloride] | 3.5 to 12.5 | < 1 | 12.5 to 150 | 1 to 3.5 | 1 to 3.5 | 3.5 to 12.5 | 12.5 to 150 | 12.5 to 150 | 1 to 3.5 | 12.5 to 150 | 12.5 to 150 | 12.5 to 150 | 12.5 to 150 | 1 to 3.5
CCc1c(-c2ccc3c(c2)cc(CNCC2CCN(C)CC2)n3C)[nH]c(=O)c(C(=O)O)c1O.Cl.Cl [Cpd 234, 5-ethyl-4-hydroxy-6-(1-methyl-2-((((1-methylpiperidin-4-yl)methyl)amino)methyl)-1H-indol-5-yl)-2-oxo-1,2-dihydropyridine-3-carboxylic acid dihydrochloride] | 1 to 3.5 | < 1 | 12.5 to 150 | 1 to 3.5 | 1 to 3.5 | 3.5 to 12.5 | 12.5 to 150 | 12.5 to 150 | 1 to 3.5 | 12.5 to 150 | 12.5 to 150 | 12.5 to 150 | 12.5 to 150 | 1 to 3.5
CCc1c(-c2ccc3c(c2)cc(CNCC2CCC2)n3C)[nH]c(=O)c(C(=O)O)c1O.Cl [Cpd 235, 6-(2-((cyclobutylmethylamino)methyl)-1-methyl-1H-indol-5-yl)-5-ethyl-4-hydroxy-2-oxo-1,2-dihydropyridine-3-carboxylic acid hydrochloride] | < 1 | < 1 | 3.5 to 12.5 | 3.5 to 12.5 | < 1 | < 1 | 12.5 to 150 | < 1 | 1 to 3.5 | 12.5 to 150 | 3.5 to 12.5 | 12.5 to 150 | 3.5 to 12.5 | < 1
CCc1c(-c2ccc3c(c2)cc(CNCC2CCCC2)n3C)[nH]c(=O)c(C(=O)O)c1O.Cl [Cpd 236, 6-(2-((cyclopentylmethylamino)methyl)-1-methyl-1H-indol-5-yl)-5-ethyl-4-hydroxy-2-oxo-1,2-dihydropyridine-3-carboxylic acid hydrochloride] | 1 to 3.5 | < 1 | 3.5 to 12.5 | 3.5 to 12.5 | < 1 | < 1 | 12.5 to 150 | 1 to 3.5 | 1 to 3.5 | 12.5 to 150 | 12.5 to 150 | 12.5 to 150 | 1 to 3.5 | < 1
CCc1c(-c2ccc3c(c2)cc(CN2CCCN(C)CC2)n3C)[nH]c(=O)c(C(=O)O)c1O.Cl.Cl [Cpd 238, 5-ethyl-4-hydroxy-6-(1-methyl-2-((4-methyl-1,4-diazepan-1-yl)methyl)-1H-indol-5-yl)-2-oxo-1,2-dihydropyridine-3-carboxylic acid dihydrochloride] | < 1 | < 1 | 3.5 to 12.5 | 1 to 3.5 | < 1 | 1 to 3.5 | 12.5 to 150 | 3.5 to 12.5 | 1 to 3.5 | 12.5 to 150 | 12.5 to 150 | 12.5 to 150 | 12.5 to 150 | 1 to 3.5
CCc1c(-c2ccc3c(c2)cc(CC2CC2C)n3C)[nH]c(=O)c(C(=O)O)c1O.Cl (stereo not drawn) [Cpd 240, 5-ethyl-4-hydroxy-6-(1-methyl-2-((2-methylcyclopropyl)methyl)-1H-indol-5-yl)-2-oxo-1,2-dihydropyridine-3-carboxylic acid hydrochloride] | < 1 | < 1 | 3.5 to 12.5 | 3.5 to 12.5 | < 1 | < 1 | 3.5 to 12.5 | < 1 | < 1 | 12.5 to 150 | 3.5 to 12.5 | 12.5 to 150 | 1 to 3.5 | < 1
CCc1c(-c2ccc3c(c2)cc(CNC2(C)CCC2)n3C)[nH]c(=O)c(C(=O)O)c1O.Cl [Cpd 245, 5-ethyl-4-hydroxy-6-(1-methyl-2-((1-methylcyclobutylamino)methyl)-1H-indol-5-yl)-2-oxo-1,2-dihydropyridine-3-carboxylic acid hydrochloride] | < 1 | < 1 | 3.5 to 12.5 | 1 to 3.5 | < 1 | < 1 | 3.5 to 12.5 | < 1 | < 1 | 3.5 to 12.5 | 1 to 3.5 | 12.5 to 150 | 1 to 3.5 | < 1
CCc1c(-c2ccc3c(c2)cc(CN2CCC(C)CC2)n3C)[nH]c(=O)c(C(=O)O)c1O [Cpd 247, 5-ethyl-4-hydroxy-6-(1-methyl-2-((4-methylpiperidin-1-yl)methyl)-1H-indol-5-yl)-2-oxo-1,2-dihydropyridine-3-carboxylic acid] | 1 to 3.5 (≈ 2.36 to 8.26 µM) | < 1 | 3.5 to 12.5 (≈ 8.26 to 29.5 µM) | 3.5 to 12.5 (≈ 8.26 to 29.5 µM) | < 1 | < 1 | 12.5 to 150 (≈ 29.5 to 354 µM) | 1 to 3.5 (≈ 2.36 to 8.26 µM) | 1 to 3.5 (≈ 2.36 to 8.26 µM) | 12.5 to 150 (≈ 29.5 to 354 µM) | 12.5 to 150 (≈ 29.5 to 354 µM) | 12.5 to 150 (≈ 29.5 to 354 µM) | 1 to 3.5 (≈ 2.36 to 8.26 µM) | < 1
CCc1c(-c2ccc3c(c2)cc(CN2CCC(N(C)C)CC2)n3C)[nH]c(=O)c(C(=O)O)c1O [Cpd 248, 6-(2-((4-(dimethylamino)piperidin-1-yl)methyl)-1-methyl-1H-indol-5-yl)-5-ethyl-4-hydroxy-2-oxo-1,2-dihydropyridine-3-carboxylic acid] | < 1 | < 1 | 3.5 to 12.5 (≈ 7.73 to 27.6 µM) | 3.5 to 12.5 (≈ 7.73 to 27.6 µM) | < 1 | 1 to 3.5 (≈ 2.21 to 7.73 µM) | 12.5 to 150 (≈ 27.6 to 331 µM) | 1 to 3.5 (≈ 2.21 to 7.73 µM) | 1 to 3.5 (≈ 2.21 to 7.73 µM) | 12.5 to 150 (≈ 27.6 to 331 µM) | 12.5 to 150 (≈ 27.6 to 331 µM) | 12.5 to 150 (≈ 27.6 to 331 µM) | 12.5 to 150 (≈ 27.6 to 331 µM) | < 1
CCc1c(-c2ccc3c(c2)cc(CN2CCCC(N(C)C)C2)n3C)[nH]c(=O)c(C(=O)O)c1O (stereo not drawn) [Cpd 250, 6-(2-((3-(dimethylamino)piperidin-1-yl)methyl)-1-methyl-1H-indol-5-yl)-5-ethyl-4-hydroxy-2-oxo-1,2-dihydropyridine-3-carboxylic acid] | 3.5 to 12.5 (≈ 7.73 to 27.6 µM) | < 1 | 3.5 to 12.5 (≈ 7.73 to 27.6 µM) | 3.5 to 12.5 (≈ 7.73 to 27.6 µM) | < 1 | 1 to 3.5 (≈ 2.21 to 7.73 µM) | 12.5 to 150 (≈ 27.6 to 331 µM) | 3.5 to 12.5 (≈ 7.73 to 27.6 µM) | 3.5 to 12.5 (≈ 7.73 to 27.6 µM) | 12.5 to 150 (≈ 27.6 to 331 µM) | 12.5 to 150 (≈ 27.6 to 331 µM) | 12.5 to 150 (≈ 27.6 to 331 µM) | 12.5 to 150 (≈ 27.6 to 331 µM) | 1 to 3.5 (≈ 2.21 to 7.73 µM)
CCc1c(-c2ccc3c(c2)cc(CN2CCC(N4CCCCC4)CC2)n3C)[nH]c(=O)c(C(=O)O)c1O [Cpd 251, 6-(2-(1,4′-bipiperidin-1′-ylmethyl)-1-methyl-1H-indol-5-yl)-5-ethyl-4-hydroxy-2-oxo-1,2-dihydropyridine-3-carboxylic acid] | 1 to 3.5 (≈ 2.03 to 7.1 µM) | < 1 | 3.5 to 12.5 (≈ 7.1 to 25.4 µM) | 3.5 to 12.5 (≈ 7.1 to 25.4 µM) | < 1 | < 1 | 12.5 to 150 (≈ 25.4 to 304 µM) | 3.5 to 12.5 (≈ 7.1 to 25.4 µM) | 1 to 3.5 (≈ 2.03 to 7.1 µM) | 12.5 to 150 (≈ 25.4 to 304 µM) | 12.5 to 150 (≈ 25.4 to 304 µM) | 12.5 to 150 (≈ 25.4 to 304 µM) | 12.5 to 150 (≈ 25.4 to 304 µM) | 1 to 3.5 (≈ 2.03 to 7.1 µM)
CCc1c(-c2ccc3c(c2)cc(CN2CCC(N)CC2)n3C)[nH]c(=O)c(C(=O)O)c1O [Cpd 252, 6-(2-((4-aminopiperidin-1-yl)methyl)-1-methyl-1H-indol-5-yl)-5-ethyl-4-hydroxy-2-oxo-1,2-dihydropyridine-3-carboxylic acid] | 1 to 3.5 (≈ 2.36 to 8.24 µM) | < 1 | 12.5 to 150 (≈ 29.4 to 353 µM) | 1 to 3.5 (≈ 2.36 to 8.24 µM) | 1 to 3.5 (≈ 2.36 to 8.24 µM) | 3.5 to 12.5 (≈ 8.24 to 29.4 µM) | 3.5 to 12.5 (≈ 8.24 to 29.4 µM) | 12.5 to 150 (≈ 29.4 to 353 µM) | 1 to 3.5 (≈ 2.36 to 8.24 µM) | 12.5 to 150 (≈ 29.4 to 353 µM) | 12.5 to 150 (≈ 29.4 to 353 µM) | 12.5 to 150 (≈ 29.4 to 353 µM) | 12.5 to 150 (≈ 29.4 to 353 µM) | 1 to 3.5 (≈ 2.36 to 8.24 µM)

From patent US9409905B2, “Antibacterial compounds and methods for use” (PTC THERAPEUTICS, INC., priority 2011, dated 2016)
